Calls of active or inactive are those of the source. The rule behind the calls is not given here.
Experiments:
Rattus norvegicus [1] = experiment: Antiinflammatory activity against rat assessed as inhibition of carrageenan-induced edema; assay type: functional
Rattus norvegicus [2] = experiment: Antiinflammatory activity against rat assessed as inhibition of carrageenan-induced edema at 75 mg/kg; assay type: functional

Structure (SMILES)	Activity (Rattus norvegicus [1])	inhibition in vivo at 75 mg/kg (Rattus norvegicus [2]) [%]	ED25 (Rattus norvegicus [1]) [mg/kg]
C[C@@H]1O[C@@H](O[C@H]2[C@H](Oc3cc(O)c4c(c3)O[C@H](c3ccc(O)cc3)CC4=O)O[C@H](CO)[C@@H](O)[C@@H]2O)[C@H](O)[C@H](O)[C@H]1O	inactive		
COc1ccc(-c2cc(=O)c3c(O)cc(OC)cc3o2)cc1 [APIGENIN DIMETHYLETHER]		25	75
C[C@]12CCC(=O)C=C1CC[C@@H]1[C@@H]2[C@@H](O)C[C@@]2(C)[C@H]1CC[C@]2(O)C(=O)COP(=O)(O)O [HYDROCORTISONE PHOSPHORIC ACID]			13.5
COc1ccc(-c2cc(=O)c3c(OC)c(OC)c(OC)c(OC)c3o2)cc1OC [NOBILETIN]			20
CCCCC1C(=O)N(c2ccccc2)N(c2ccccc2)C1=O [PHENYLBUTAZONE]		81	

From ChEMBL document CHEMBL1151637, “A flavone with antiinflammatory activity from the roots of Rhus undulata” (1984)
